According to patent US12239638B2, “Crystalline form of a 4-[2-(2-fluorophenoxymethyl)phenyl]piperidine compound” (THERAVANCE BIOPHARMA R&D IP, LLC, priority 2008, dated 2025):

Assays:
[1] = target: T1, hSERT (Homo sapiens, UniProt P31645); assay: hSERT membrane radioligand binding assay (3H-citalopram); settings: compound of Example 1 tested as TFA salt; read-out: SERT pKi (converted)
T1 construct: expressed in transfected cells; host or cells: HEK-293 derived cell line, stably transfected; membranes
T1 sequence (P31645 whole entry): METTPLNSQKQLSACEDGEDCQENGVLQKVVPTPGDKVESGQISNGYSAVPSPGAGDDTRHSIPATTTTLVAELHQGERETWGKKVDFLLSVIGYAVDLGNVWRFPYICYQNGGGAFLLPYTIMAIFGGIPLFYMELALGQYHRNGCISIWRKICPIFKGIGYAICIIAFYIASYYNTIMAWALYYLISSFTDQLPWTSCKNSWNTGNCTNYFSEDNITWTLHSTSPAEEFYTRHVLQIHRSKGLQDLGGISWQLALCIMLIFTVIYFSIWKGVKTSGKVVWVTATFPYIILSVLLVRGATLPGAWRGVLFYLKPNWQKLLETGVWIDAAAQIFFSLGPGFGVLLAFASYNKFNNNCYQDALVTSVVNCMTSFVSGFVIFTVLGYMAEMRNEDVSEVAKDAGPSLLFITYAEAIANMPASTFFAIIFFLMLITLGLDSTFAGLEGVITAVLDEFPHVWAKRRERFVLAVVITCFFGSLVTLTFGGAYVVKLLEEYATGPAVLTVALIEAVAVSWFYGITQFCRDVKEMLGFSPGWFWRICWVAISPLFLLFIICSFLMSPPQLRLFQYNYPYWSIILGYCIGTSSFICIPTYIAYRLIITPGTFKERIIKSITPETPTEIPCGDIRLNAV
Description: (§1) Membrane radioligand binding assays were used to measure competitive inhibition of labeled ligand (^3H-citalopram or ^3H-nisoxetine or ^3H-WIN35428) binding to membranes prepared from cells expressing the respective human recombinant transporter (hSERT or hNET or hDAT) in order to determine the pKi values of test compounds at the transporters.
(§2) Recombinant human embryonic kidney (HEK-293) derived cell lines stably transfected with hSERT or hNET, respectively, were grown in DMEM medium supplemented with 10% dialyzed FBS (for hSERT) or FBS (for hNET), 100 μg/ml penicillin, 100 μg/ml streptomycin, 2 mM L-glutamine and 250 μg/ml of the aminoglycoside antibiotic G418, in a 5% CO2 humidified incubator at 37° C. When cultures reached 80% confluence, the cells were washed thoroughly in PBS (without Ca^2+ and Mg^2+) and lifted with 5 mM EDTA in PBS. […] Protein concentration of the membrane suspension was determined using a Bio-Rad Bradford Protein Assay kit. […]
(§3) Following a 60 minute incubation at 22° C. […] Plates were dried overnight at room temperature, ˜45 μl of MicroScint™-20 (Perkin Elmer) added and bound radioactivity quantitated via liquid scintillation spectroscopy. Competitive inhibition curves and saturation isotherms were analyzed using GraphPad Prism Software package (GraphPad Software, Inc., San Diego, CA). […]

[2] = target: T2, hNET (Homo sapiens, UniProt P23975); assay: hNET membrane radioligand binding assay (3H-nisoxetine); settings: compound of Example 1 tested as TFA salt; read-out: NET pKi (converted)
T2 construct: expressed in transfected cells; host or cells: HEK-293 derived cell line, stably transfected; membranes
T2 sequence (P23975 whole entry): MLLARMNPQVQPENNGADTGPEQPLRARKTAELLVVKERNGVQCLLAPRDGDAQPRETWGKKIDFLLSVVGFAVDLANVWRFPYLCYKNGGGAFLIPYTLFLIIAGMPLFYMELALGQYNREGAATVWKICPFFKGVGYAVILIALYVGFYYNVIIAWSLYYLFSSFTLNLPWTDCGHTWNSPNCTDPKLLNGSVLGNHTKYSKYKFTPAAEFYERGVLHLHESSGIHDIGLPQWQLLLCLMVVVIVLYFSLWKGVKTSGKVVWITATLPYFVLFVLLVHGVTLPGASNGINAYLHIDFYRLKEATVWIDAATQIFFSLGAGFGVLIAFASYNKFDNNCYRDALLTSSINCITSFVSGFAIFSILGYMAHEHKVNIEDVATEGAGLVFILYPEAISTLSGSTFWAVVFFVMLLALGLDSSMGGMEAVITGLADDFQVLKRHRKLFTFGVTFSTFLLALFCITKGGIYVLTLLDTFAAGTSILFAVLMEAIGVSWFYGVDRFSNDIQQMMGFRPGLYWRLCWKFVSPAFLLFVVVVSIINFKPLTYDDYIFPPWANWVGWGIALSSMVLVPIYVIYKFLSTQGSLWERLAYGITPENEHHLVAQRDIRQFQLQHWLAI
Description: as §1, §2, §3

[3] = Thermal analysis by differential scanning calorimetry (DSC); format: physicochemical; settings: heating ramp 10° C./min from 22° C. to 250° C.
Description: Differential scanning calorimetry (DSC) was performed using a TA Instruments Model Q-100 module with a Thermal Analyst controller. Data were collected and analyzed using TA Instruments Thermal Solutions software. A 2.8 mg sample of the crystalline hydrochloride salt of Example 2 was accurately weighed into a covered aluminum pan. After a 5 minute isothermal equilibration period at 22° C., the sample was heated using a linear heating ramp of 10° C./min from 22° C. to 250° C.

SMILES: Fc1cc(F)c(OCc2ccccc2C2CCNCC2)c(F)c1 [Example 1, 4-[2-(2,4,6-Trifluorophenoxymethyl)phenyl]piperidine]
- Ki [1]: ≤ 12.6 nM
- Ki [2]: ≤ 10 nM
- thermal stability (thermal decomposition by DSC) [3]: no thermal decomposition below 200.0 °C
